In patent EP2266622A2, “Prodrugs containing novel bio-cleavable linkers” (Piramal Life Sciences Limited, priority 2004, dated 2006):
Entries after “also recorded” stand apart in the source; their conditions may differ. Marks after values point to notes of the source that are not given here.

What was measured:
MES-induced seizures [1] = test: Test 1: Maximal Electroshock Test (MES), mice i.p.; type: in vivo; settings: for MES: class symbol = dose
Procedure: (§1) Most of the prodrugs and mutual prodrugs of anticonvulsants described in this invention were evaluated at National Institute of Neurological Disorders and Stroke (NINDS), National Institute of Health (NIH), under their Antiepileptic Screening Program (ASP).
(§2) Test 1 is an initial screening for anticonvulsant activity in the Maximal Electroshock Test (MES) and Subcutaneous Metrazol Seizure Threshold Test (scMET) models combined with an initial assessment of toxicity (TOX) in mice via i.p. injection (see further explanation below). The data for each condition is presented as N/F, where N = number of animals protected from seizure and F = number of animals tested. For test of toxicity, N = number of animals displaying toxic effects and F = number of animals tested. Any deaths occurring during the test were recorded.
(§3) Maximal Electroshock Test (MES): The MES is a model for generalized tonic-clonic seizure and provides an indication of a compound's ability to prevent seizure spread when all neuronal circuits in the brain are maximally active. These seizures are highly reproducible and electro-physiologically consistent with human seizures. For all tests based on MES convulsions, 60 Hz of alternating current (50 mA in mice) is delivered for […] by corneal electrodes, which have been primed with an electrolyte solution containing an anesthetic agent (0.5% tetracaine hydrochloride). Mice were tested at various intervals following doses of 30, 100 and 300 mg/kg of test compound given by i.p. injection of a volume of 0.01 mL/g. Other doses can be used if indicated by previously known pharmacology. An animal is considered "protected" from MES-induced seizures upon abolition of the hind-limb tonic extensor component of the seizure.

clonic seizures = test: Test 1: Subcutaneous Metrazol Seizure Threshold Test (scMET), mice i.p.; type: in vivo; settings: for ScMET (number of animal protected/number of animal tested): 300 mg/kg (+); for ScMET: class symbol = dose
Procedure: as §1, §2
Subcutaneous Metrazol Seizure Threshold Test (scMET): Subcutaneous injection of the convulsant metrazol produces clonic seizures in laboratory animals. […] Animals were pretreated with various doses of the test compound given by i.p. injection. At the previously determined Time to Peak Effect (TPE) of the test compound, the dose of metrazol which will produce convulsions in 97% of animals (CD97: 85 mg/kg in mice) was injected into a loose fold of skin in the midline of the neck. The animals were placed in isolation cages to minimize stress and observed for the next 30 minutes for the presence or absence of a seizure. An episode of clonic spasms, approximately […], of the fore and/or hind limbs, jaws, or vibrissae is taken as the end point.

[2] = test system: minimal muscular or neurological impairment; test: Test 1: Acute toxicity, minimal motor impairment (rotorod), mice i.p.; type: in vivo; settings: for Rotorod Toxicity: class symbol = dose; for Rotorod Toxicity (number of animals exhibiting toxicity/number of animals tested): 300 mg/kg (+)
Procedure: as §1, §2

MES-induced seizures [3] = test: Test 2: MES, rats p.o.; type: in vivo
Description: as §3
(§4) Rats received test compounds orally.

Neurological toxicity = test: Test 2: neurological toxicity, rats p.o.; type: in vivo; settings: 30 mg/kg
Description: as §4

[4] = 100 mg/kg (++), 2 hours after dosing
[5] = at 2 hours after dosing (footnote h)

SMILES	activity in MES (Test 1, in words) (MES-induced seizures [1])	MES (number of animal protected/number of animal tested) (MES-induced seizures [1]; 100 mg/kg (++), 4.0 h)	MES (MES-induced seizures [1]; 0.5 h)	MES (MES-induced seizures [1]; 4.0 h)	ScMET (clonic seizures; 0.5 h)	toxicity (Test 1, in words) [2]	Rotorod Toxicity ([2]; 0.5 h)	Rotorod Toxicity ([2]; 4.0 h)	MES (number of animal protected/number of animal tested) (MES-induced seizures [3]; 30 mg/kg, 0.50 h)	MES (number of animal protected/number of animal tested) (MES-induced seizures [3]; 30 mg/kg, 1.00 h)	MES (number of animal protected/number of animal tested) (MES-induced seizures [3]; 30 mg/kg, 2.00 h)	MES (number of animal protected/number of animal tested) (MES-induced seizures [3]; 30 mg/kg, 4.00 h)	MES (number of animal protected/number of animal tested) (MES-induced seizures [1]; 300 mg/kg (+), 0.5 h)	MES (number of animal protected/number of animal tested) (MES-induced seizures [1]; 300 mg/kg (+), 4.0 h)	ScMET (clonic seizures; 4.0 h)	Rotorod Toxicity (number of animals exhibiting toxicity/number of animals tested) ([2]; 0.5 h)	further results
Nc1nc(NC(=O)OCCSSCCOC(=O)c2cccnc2)nnc1-c1cccc(Cl)c1Cl [I-CA-MPD24]	active in both MES and scMET models	3/3	- (- = no activity or no toxicity at 300 mg/kg)	++ (++ = activity or toxicity at 100 mg/kg)	- (- = no activity or no toxicity at 300 mg/kg)	non-toxic; also recorded: no or mild toxicity	- (- = no activity or no toxicity at 300 mg/kg)	- (- = no activity or no toxicity at 300 mg/kg)	0/4	2/4	3/4	4/4					MES (number of animal protected/number of animal tested) (MES-induced seizures [1]; [4]): 3/3; MES (number of animal protected/number of animal tested) (MES-induced seizures [1]; 100 mg/kg (++), 6 hours after dosing): (3/3)^m; MES (MES-induced seizures [1]; [5]): ++ (++ = activity or toxicity at 100 mg/kg); MES (MES-induced seizures [1]; at 6 hours after dosing (footnotes g, m)): ++ (++ = activity or toxicity at 100 mg/kg); activity in scMET (Test 1, in words) (clonic seizures): active in both MES and scMET models; ScMET (number of animal protected/number of animal tested) (clonic seizures; 4.0 h): (1/1)^l
CC(=O)Oc1ccccc1C(=O)O [Aspirin]																	haemorrhagic lesions (area), Mean ± S.E.M. (mucosal damage; rat, in vivo, po, 100 mg/kg): 2.7 ± 0.9 mm^2; ulcer development (in words) (mucosal damage; rat, in vivo, po, 100 mg/kg): severe haemorrhagic lesions; gastrointestinal safety (summary in words) (mucosal damage; rats, oral, high equivalent doses compared to aspirin): caused severe ulcers
CS(=O)(=O)NC(=O)OCCSSCCOC(=O)Nc1nnc(-c2cccc(Cl)c2Cl)c(N)n1 [I-A1-PD15]	active in MES	2/3	+ (+ = activity or toxicity at 300 mg/kg)		- (- = no activity or no toxicity at 300 mg/kg)	no or mild toxicity	- (- = no activity or no toxicity at 300 mg/kg)	- (- = no activity or no toxicity at 300 mg/kg)	0/4	1/4	3/4	4/4	(1/1)	1/1	- (- = no activity or no toxicity at 300 mg/kg)		
CCOC(=O)CC1(CNC(=O)OCCSSCCO[N+](=O)[O-])CCCCC1 [I-A1-NOPD1]			+ (+ = activity or toxicity at 300 mg/kg)	- (- = no activity or no toxicity at 300 mg/kg)				- (- = no activity or no toxicity at 300 mg/kg)					1/1		- (- = no activity or no toxicity at 300 mg/kg)	4/4	MES (number of animal protected/number of animal tested) (MES-induced seizures [1]; 100 mg/kg (++), 0.25 hours after dosing): (1/3)^k; MES (MES-induced seizures [1]; at 0.25 hours after dosing (footnote k)): ++ (++ = activity or toxicity at 100 mg/kg); ScMET (number of animal protected/number of animal tested) (clonic seizures; 0.5 h): 1/1
CCCC(CCC)C(=O)OCCSSCCOC(=O)Nc1nnc(-c2cccc(Cl)c2Cl)c(N)n1 [I-CA-MPD23]	active in MES		- (- = no activity or no toxicity at 300 mg/kg)	+ (+ = activity or toxicity at 300 mg/kg)	- (- = no activity or no toxicity at 300 mg/kg)	no or mild toxicity	- (- = no activity or no toxicity at 300 mg/kg)	- (- = no activity or no toxicity at 300 mg/kg)						1/3	- (- = no activity or no toxicity at 300 mg/kg)		MES (number of animal protected/number of animal tested) (MES-induced seizures [1]; [4]): 1/3; MES (MES-induced seizures [1]; [5]): ++ (++ = activity or toxicity at 100 mg/kg); MES (number of animal protected/number of animal tested) (MES-induced seizures [3]; 150 mg/kg, 2.00 h): 4/4; MES (number of animal protected/number of animal tested) (MES-induced seizures [3]; 150 mg/kg, 4.00 h): 4/4; MES (number of animal protected/number of animal tested) (MES-induced seizures [3]; 150 mg/kg, 6.00 h): 4/4; MES (number of animal protected/number of animal tested) (MES-induced seizures [3]; 150 mg/kg, 8.00 h): 4/4
Nc1nc(NC(=O)OCCSSCCOC(=O)NCC2(CC(=O)O)CCCCC2)nnc1-c1cccc(Cl)c1Cl [I-AA-MPD11]	active in MES	3/3			- (- = no activity or no toxicity at 300 mg/kg)	no or mild toxicity		- (- = no activity or no toxicity at 300 mg/kg)	0/4	2/4	1/4	4/4	1/1	1/1	- (- = no activity or no toxicity at 300 mg/kg)	1/4	Toxicity (number of animals exhibiting toxicity/number of animals tested) (Neurological toxicity; 0.50 h): 0/4; Toxicity (number of animals exhibiting toxicity/number of animals tested) (Neurological toxicity; 1.00 h): 0/4; Toxicity (number of animals exhibiting toxicity/number of animals tested) (Neurological toxicity; 2.00 h): 0/4; Toxicity (number of animals exhibiting toxicity/number of animals tested) (Neurological toxicity; 4.00 h): 0/4
CCOC(=O)CC1(CNC(=O)OCCSSCCOC(=O)NC(=O)[C@H](CC)N2CCCC2=O)CCCCC1 [I-AA-MPD13]			- (- = no activity or no toxicity at 300 mg/kg)	- (- = no activity or no toxicity at 300 mg/kg)	+ (+ = activity or toxicity at 300 mg/kg)		+ (+ = activity or toxicity at 300 mg/kg)	- (- = no activity or no toxicity at 300 mg/kg)							- (- = no activity or no toxicity at 300 mg/kg)	4/4	ScMET (number of animal protected/number of animal tested) (clonic seizures; 0.5 h): 1/1
Cl.Nc1nc(NC(=O)OCCSSCCNC(=O)c2cccnc2)nnc1-c1cccc(Cl)c1Cl [I-CA-MPD25]	active in MES	2/3	+ (+ = activity or toxicity at 300 mg/kg)		- (- = no activity or no toxicity at 300 mg/kg)	no or mild toxicity	- (- = no activity or no toxicity at 300 mg/kg)	- (- = no activity or no toxicity at 300 mg/kg)	0/4	3/4	4/4	2/4	(1/1)	1/1	- (- = no activity or no toxicity at 300 mg/kg)		
CCOC(=O)CC1(CNC(=O)OCCSSCC(=O)OC)CCCCC1 [I-A1-PD5]	active in MES		+ (+ = activity or toxicity at 300 mg/kg)	- (- = no activity or no toxicity at 300 mg/kg)	+ (+ = activity or toxicity at 300 mg/kg)	no or mild toxicity	+ (+ = activity or toxicity at 300 mg/kg)	- (- = no activity or no toxicity at 300 mg/kg)							- (- = no activity or no toxicity at 300 mg/kg)	3/4	
